This experiment concerns the target T1, dihydrofolate reductase (DHFR) (Escherichia coli, UniProt P0ABQ4, C152S/C85A).
T1 construct: gene folA
T1 sequence (P0ABQ4 1-159 C85A/C152S): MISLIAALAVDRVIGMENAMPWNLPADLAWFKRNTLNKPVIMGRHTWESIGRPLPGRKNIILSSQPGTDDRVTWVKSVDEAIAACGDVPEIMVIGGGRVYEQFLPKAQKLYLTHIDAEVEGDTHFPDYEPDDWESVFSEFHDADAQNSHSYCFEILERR
Nature of the experiment: spectrophotometric DHFR activity assay ([…] nm) with in-house purified E. coli DHFR, triplicates. Format: biochemical.

Each structure is given as a SMILES string.

One may read the IC50 as the concentration at which inhibition is half-maximal. Higher therefore signals weaker potency. As to `COc1cc(Cc2cnc(N)nc2N)cc(OC)c1OCc1cc(Cl)c(/N=N\c2c(Cl)cccc2Cl)c(Cl)c1` [TCATa], half-maximal inhibition (IC50) required 3.3 ± 2.1 nM.

The compound `COc1cc(Cc2cnc(N)nc2N)cc(OC)c1OCc1cc(Cl)c(/N=N/c2c(Cl)cccc2Cl)c(Cl)c1` [TCATd] showed an IC50 of 3.8 ± 1.4 nM.
